From BigSolDB 2.1

CC(C)c1ncc[nH]1
solubility (mole fraction)
Details	in 2-butanone	in acetone	in acetonitrile	in ethanol	in ethyl acetate	in isopropanol	in methanol	in n-propanol	in toluene
278.15 K	0.11	0.0906	0.0259	0.189	0.0519	0.0738	0.224	0.0999	0.0215
280.65 K	0.116	0.0946	0.0275	0.196	0.0556	0.0768	0.233	0.104	0.0225
283.15 K	0.121	0.0988	0.0291	0.203	0.0588	0.0801	0.242	0.109	0.0237
285.65 K	0.127	0.103	0.0308	0.21	0.0626	0.0825	0.252	0.114	0.0248
288.15 K	0.133	0.108	0.0325	0.216	0.066	0.0856	0.263	0.117	0.026
290.65 K	0.139	0.111	0.0343	0.226	0.0697	0.0883	0.274	0.121	0.0272
293.15 K	0.145	0.116	0.0361	0.235	0.0737	0.0927	0.285	0.126	0.0287
295.65 K	0.152	0.121	0.0379	0.243	0.0778	0.0965	0.297	0.133	0.0302
298.15 K	0.159	0.127	0.0401	0.253	0.0826	0.101	0.31	0.139	0.0318
300.65 K	0.167	0.133	0.0427	0.263	0.0883	0.105	0.322	0.146	0.0336
303.15 K	0.177	0.14	0.0453	0.273	0.0939	0.11	0.334	0.153	0.0355
305.65 K	0.185	0.146	0.0481	0.282	0.0994	0.115	0.348	0.159	0.0374
308.15 K	0.194	0.153	0.0509	0.294	0.105	0.121	0.361	0.166	0.0394
310.65 K	0.203	0.159	0.0538	0.304	0.112	0.126	0.376	0.173	0.0416
313.15 K	0.213	0.166	0.0568	0.315	0.118	0.132	0.39	0.18	0.0437
